According to patent US20160249841A1, “[…] ELECTROENCEPHALOGRAPHIC OSCILLATIONS” (Galenea Corp., priority 2012, published 2016):

How the values were obtained:
[1] = test system: Coloboma mice; conditions: low doses; cited from earlier work
[2] = test system: wild-type mice; assay: EEG time-frequency maps of mean power during onset of exploratory activity, wild-type mice treated with PCP; format: in vivo, mouse; conditions: wild-type mice treated with PCP versus untreated, FIG. 10
Source text: Time-frequency maps were produced of mean power for untreated wild-type mice and mice treated with PCP. A signature in EEG oscillations observed in untreated mice was absent following treatment with PCP. This signature was characterized by peaks in early beta (20-30 Hz) activity, gammaLow (30-40 Hz) and gammaHi (80-100) Hz activity.

[3] = test system: CNhetKO mice; assay: Novel object recognition task performance, CNhetKO mice; format: in vivo, mouse
Description: EEGs were recorded from control and calcineurin heterozygous knock-out (CNhetKO) subjects during performance of a novel-object recognition task. Control and CNhetKO mice were exposed to two identical objects during a 10 min sample phase. After a 24 hour delay period, subjects were exposed to a familiar object and a novel object. During each phase, the behavior of each subject was monitored in real time and synchronized to recorded EEG oscillations (Topscan, CleverSys Inc.). As depicted in FIG. 4, an exploratory activity occurred when a subject's nose was orientated towards an object and was within a 2 cm radius surrounding the object for at least 200 msec, while the subject's center of mass (‘*’) was outside of 2 cm radius. […]
The effects of D4 agonist PD168077 on the EEG oscillations observed during onset of the exploratory activity in CNhetKO mice were evaluated. CNhetKO subjects were treated with PD 168077 (5 mg/kg) subcutaneously and EEG oscillations associated with exploratory activity in a novel object recognition task were analyzed. Exploratory activity in the presence of novel objects and familiar objects was analyzed for up to 90 min post-injection. Time-frequency maps of baseline conditions (no D4 agonist) and treatment conditions were evaluated.

[4] = test system: CNhetKO mice; assay: EEG oscillations in PFC during onset of exploratory activity in novel object recognition task, CNhetKO mice; format: in vivo, mouse; conditions: 5 mg/kg subcutaneously
Source text: Alterations in electroencephalographic oscillations (e.g., shifts in power) recorded from the prefrontal cortex (PFC) of mice could result from engagement of executive functions necessary for attending to and actively exploring a new environment; processes unrelated to executive function may also be involved. An integrated system was set up that combined automated real-time behavioral analysis (Topscan, CleverSys, Inc., Reston, Va.) together with multichannel electrophysiology equipment (MC_Rack, MultiChannel Systems, GmbH, Reutlingen, Germany) to analyze PFC activity during different phases of a novel object recognition (NOR) task in mice that were well habituated to the test apparatus.
EEGs were recorded from control and calcineurin heterozygous knock-out (CNhetKO) subjects during performance of a novel-object recognition task. […] During each phase, the behavior of each subject was monitored in real time and synchronized to recorded EEG oscillations (Topscan, CleverSys Inc.). […]
The area under the curve was computed from spectrograms to quantify power in different frequency bands [Theta (4-12 Hz) and GammaHI (65-90 Hz)] of the EEG oscillations. […]
The effects of D4 agonist PD168077 on the EEG oscillations observed during onset of the exploratory activity in CNhetKO mice were evaluated. […] Time-frequency maps of baseline conditions (no D4 agonist) and treatment conditions were evaluated.

Structure (SMILES): C[C@H](N)Cc1ccccc1 [D-amphetamine]
- Hyperkinesis [1]: ameliorated

Structure (SMILES): c1ccc(C2(N3CCCCC3)CCCCC2)cc1 [PCP, Phencyclidine]
- Signature in EEG oscillations (peaks in early beta 20-30 Hz, gammaLow 30-40 Hz, gammaHi 80-100 Hz) [2]: absent

Structure (SMILES): Cc1cccc(C(=O)NCN2CCN(c3ccccc3C#N)CC2)c1 [PD 168077]
- Time spent exploring novel objects versus familiar objects ([3]; CNhetKO mice, versus cyclodextrin control, FIG. 8B): significantly more time exploring novel objects compared with familiar objects
- Performance in the novel object recognition cognitive paradigm ([3]; CNhetKO subjects, 5 mg/kg s.c. 30 min prior to familiarization phase and again 30 min prior to test phase after 24 hr): essentially completely restored performance
- Signature of EEG oscillation observed during onset of the exploratory activity (time-frequency maps) ([4]; CNhetKO mice, up to 90 min post-injection, versus baseline (no D4 agonist)): restored the signature of EEG oscillation
- Gamma responses (GammaHi 65-90 Hz EEG power) in PFC elicited by object exploration ([4]; CNhetKO subjects, analyzed up to 90 min post-injection, FIG. 6): transiently restored normal Gamma responses
